Here are results for nine compounds from patent publication US6831199B1, “Pyrimidine compounds and derivatives thereof” (G. D. Searle & Co., priority 1995, dated 2004).

The target of experiment [1] is T1, Human vitronectin receptor (αvβ3) (Homo sapiens, UniProt P05106+P06756).
T1 construct: Human vitronectin receptor (αvβ3) was purified from human placenta; from tissue; host or cells: human placenta
The experiment in a line: Vitronectin adhesion assay (solid phase receptor assay, competition with biotinylated vitronectin). It is filed as binding. The note with it: read-out: AvB3 IC50. An outline of the steps:
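Purified human αvβ3 coated overnight at 4 °C in TBS with 1.0 mM Ca++, Mg++, Mn++, pH 7.4; compounds (top final 1.0×10^−4 M) competed with 1 nM biotinylated vitronectin for 2 h at room temperature. Bound ligand detected by HRP anti-biotin/OPD at A450; values normalized to no-competitor controls, four-parameter curve fit.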

For experiment [2], the target named is T2, Human fibrinogen receptor (αIIbβ3) (Homo sapiens, UniProt P05106+P08514).
T2 construct: Human fibrinogen receptor (αIIbβ3) was purified from outdated platelets; from tissue; host or cells: outdated human platelets
The experiment in a line: Purified IIb/IIIa receptor assay (solid phase receptor assay, competition with biotinylated vitronectin). The note with it: read-out: IIb/IIIa IC50. It is filed as binding. An outline of the steps:
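Competition format: 1 nM biotinylated vitronectin plus test compound (highest 1.0×10^−4 M), 2 h at room temperature on wells coated with platelet-derived αIIbβ3. Buffer was TBS containing 1.0 mM Ca, Mg, Mn, pH 7.4. HRP anti-biotin readout at 450 nm; normalized to maximum binding, four-parameter curve fit.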

The subject of another experiment is platelet rich plasma. Nature of the experiment: Human platelet rich plasma assay (ADP induced platelet aggregation). The note with it: ADP induced platelet aggregation in human platelet rich plasma, read-out: Human PRP. It is filed as cell-based. The method, then: Human Platelet Rich Plasma Assays
Healthy aspirin free donors were selected from a pool of volunteers. The harvesting of platelet rich plasma and subsequent ADP induced platelet aggregation assays were performed as described in Zucker, M. B., “Platelet Aggregation Measured by the Photometric Method”, Methods in Enzymology 169(1989):117-133. Standard venipuncture techniques using a butterfly allowed the withdrawal of 45 mL of whole blood into a 60 mL syringe containing 5 mL of 3.8% trisodium citrate. Following thorough mixing in the syringe, the anti-coagulated whole blood was transferred to a 50 mL conical polyethylene tube. The blood was centrifuged at room temperature for 12 minutes at 200×g to sediment non-platelet cells. Platelet rich plasma was removed to a polyethylene tube and stored at room temperature until used. Platelet poor plasma was obtained from a second centrifugation of the remaining blood at 2000×g for 15 minutes. Platelet counts are typically 300,000 to 500,000 per microliter. Platelet rich plasma (0.45 mL) was aliquoted into siliconized cuvettes and stirred (1100 rpm) at 37° C. for 1 minute prior to adding 50 uL of pre-diluted test compound. After 1 minute of mixing, aggregation was initiated by the addition of 50 uL of 200 uM ADP. Aggregation was recorded for 3 minutes in a Payton dual channel aggregometer (Payton Scientific, Buffalo, N.Y.). The percent inhibition of maximal response (saline control) for a series of test compound dilutions was used to determine a dose response curve.

Structures can show the parent of a compound that is named as a salt. Where two headings read alike, the source gives them in different places.

As to `N#C/N=C(\N)Nc1cccc(C(=O)NCC(=O)NC(CC(=O)O)c2ccccc2)c1` (stereo not drawn) [Example 138, β-[[2-[[[3-[[amino(cyanoimino)methyl]amino]phenyl]carbonyl]amino]acetyl]amino]benzenepropanoic acid], the IC50 in experiment [1] is 36.9 nM; in experiment [2], 5820 nM; in the experiment with platelet rich plasma (Homo sapiens, Platelet) it was > 200 µM.
Regarding `N=C(N)Nc1cccc(C(=O)NCC(=O)N[C@H](CSc2ccccc2)CC(=O)O)c1` [Example 68, 3S-[[2-[[[3-[(aminoiminomethyl)amino]phenyl]carbonyl]amino]acetyl]amino]-4-(phenylthio)butanoic acid, trifluoroacetate salt], the IC50 in experiment [1] was 5.48 nM; in experiment [2] it was 125 nM; in the experiment on platelet rich plasma (Homo sapiens, Platelet), > 200 µM.
`NS(=O)(=O)c1ccc(CNC(=O)Nc2cccc(C(=O)NCC(=O)NC(CC(=O)O)c3cccnc3)c2)cc1` (stereo not drawn) [Example 126, β-[[2-[[[3-[[[[(4-(aminosulfonyl)phenylmethyl]amino]carbonyl]amino]phenyl]carbonyl]amino]acetyl]amino]pyridine-3-propanoic acid, trifluoroacetate salt]: the IC50 in experiment [1] is 2.48 nM; in experiment [2], 2010 nM; with platelet rich plasma (Homo sapiens, Platelet), > 200 µM.
Take `N#C/N=C(/NCc1ccccn1)Nc1cccc(C(=O)NCC(=O)NC(CC(=O)O)c2ccccc2)c1` (stereo not drawn) [Example 144, β-[[2-[[[3-[[(cyanoimino)[2-pyridinylmethyl)amino]methyl]amino]phenyl]carbonyl]amino]acetyl]amino]benzenepropanoic acid, bis(trifluoroacetate)salt]: the IC50 is 55.3 nM in experiment [1]; 5830 nM in experiment [2]; > 200 µM in the experiment with platelet rich plasma (Homo sapiens, Platelet).
Regarding `O=C(O)CC(NC(=O)CNC(=O)c1cccc(NC2=NCCN2)c1)c1cc(Cl)cc(Cl)c1` (racemic) [Example 191, (±)β-[[2-[[[3-[(4,5-dihydro-1H-imidazol-2-yl)amino]phenyl]carbonyl]amino]acetyl]amino]-3,5-dichlorobenzenepropanoic acid, trifluoroacetate salt], the IC50 in experiment [1] was 0.49 nM; in experiment [2] it was 70.3 nM; in the experiment with platelet rich plasma (Homo sapiens, Platelet) it was > 20 µM.
The like results for `N=C(N)Nc1cccc(C(=O)NCC(=O)NC(CC(=O)O)c2ccccc2O)c1` (racemic) [Example 87, (±)sodium β-[[2-[[[3-[(aminoiminomethyl)amino]phenyl]carbonyl]amino]acetyl]amino]-2-hydroxybenzenepropanoate, sodium salt, trifluoroacetate salt] were, in that order, 6.35 nM, 732 nM and > 200 µM.
The like results for `O=C(O)CC(NC(=O)CNC(=O)c1cccc(NC2=NCCCN2)c1)c1cc(Cl)cc(Cl)c1` (racemic) [Example 200, (±)3,5-dichloro-β-[[2-[[[3-[(1,4,5,6-tetrahydropyrimidin-2-yl)amino]phenyl]carbonyl]amino]acetyl]amino]benzenepropanoic acid, trifluoroacetate salt] were, in that order, 0.48 nM, 1100 nM and > 200 µM.
As for `N=C(N)Nc1cccc(C(=O)NCC(=O)NC(CC(=O)O)c2cc(Cl)cc(Br)c2O)c1` (racemic) [Example 233, (±)β-[[2-[[[3-[(aminoiminomethyl)amino]phenyl]carbonyl]amino]acetyl]amino]-3-bromo-5-chloro-2-hydroxybezenepropanoic acid, trifluoroacetate salt, monohydrate], the IC50 was 3.31 nM in experiment [1], 647 nM in experiment [2] and > 200 µM in the experiment on platelet rich plasma.
As for `N=C(N)Nc1cc(C(=O)NCC(=O)NC(CC(=O)O)c2cc(Cl)cc(Cl)c2)cc(C(F)(F)F)c1` (racemic) [Example 177, (±)β-[[2-[[[3-[(aminoiminomethyl)amino]-5-(trifluoromethyl)phenyl]carbonyl]amino]acetyl]amino]-3,5-dichlorobenzenepropanoic acid, trifluoroacetate salt], the IC50 in experiment [1] is 0.58 nM; in experiment [2], 137 nM; with platelet rich plasma (Homo sapiens, Platelet) it was > 20 µM.
